Tests used:
Format in all cases: cell-based
[1] = tested on: TEL-VEGFR2-BaF3; experiment: Cell proliferation (CCK-8, 72 h), TEL-VEGFR2-BaF3; conditions: Mus musculus, BaF3 expressing VEGFR2 kinase
Excerpt: (§1) In this example, human gastrointestinal stromal tumor cell line GIST-T1 (expressing wild-type C-KIT gene) (purchased from Cosmo Bio Co., Ltd. (Japan)), human gastrointestinal stromal tumor cell line GIST-T1-T670I (expressing C-KIT-T670I mutant gene) (constructed by our laboratory with CRISPR technology), mouse […] BaF3 (purchased from ATCC) were used. In addition, in this Example, mouse Tel-cKit-BaF3 (stably expressing C-KIT wild-type kinase), mouse Tel-cKit/T670I-BaF3 (stably expressing cKIT T670I mutant kinase), mouse Tel-PDGFRα-BaF3 (stably expressing PDGFRα kinase), mouse Tel-PDGFRβ-BaF3 (stably expressing PDGFRβ kinase), mouse Tel-VEGFR2-BaF3 (stably expressing VEGFR2 kinase), mouse Tel-FLT3-BaF3 (stably expressing FLT3 kinase) were also used. The above cell lines were all constructed by our laboratory. The construction method was as follows: the human C-KIT, C-KIT T670I, PDGFRα, PDGFRβ, VEGFR2, FLT3 kinase region sequences were amplified by PCR respectively and inserted into MSCV-Puro vector (purchased from Clontech) with N-terminal TEL fragment and/or NPM fragment and/or TPR fragment respectively, which was stably transferred into mouse BaF3 cells by retroviral method, and IL-3 growth factor was removed, and finally the cell lines in which protein was transferred depending on C-KIT, C-KIT/T670I, PDGFRα, PDGFRβ, VEGFR2, FLT3 were obtained. The GIST-T1-T670I (expressing C-KIT-T670I mutant gene) cell line was constructed by our laboratory. The construction method was as follows: the sgRNA targeting near the T670 site of the KIT gene was designed by the CRISPR design tool of the Zhang Feng Laboratory of the Massachusetts Institute of Technology (URL: crispr.mit.edu) and cloned into pSpCas9(BB)-2A-Puro vector (Addgene, USA); the obtained vector and a single-stranded oligonucleotide with T670I mutation near the T670 site were co-transfected into the cells, and after antibiotic selection, they were diluted and cultured in a single cell in a 96-well plate; the T670 site of the cells was sequenced and verified by the Sanger sequencing method.

[2] = tested on: TEL-PDGFRβ-BaF3; experiment: Cell proliferation (CCK-8, 72 h), TEL-PDGFRβ-BaF3; conditions: Mus musculus, BaF3 expressing PDGFRβ kinase
Excerpt: as §1

[3] = tested on: TEL-cKIT/T670I-BaF3; experiment: Cell proliferation (CCK-8, 72 h), TEL-cKIT/T670I-BaF3; conditions: Mus musculus; BaF3 expressing cKIT T670I mutant kinase, 72 h, CCK-8; read-out: GI50 TEL-cKIT/T670I-BaF3
Excerpt: as §1

[4] = tested on: TEL-cKIT-BaF3; experiment: Cell proliferation (CCK-8, 72 h), TEL-cKIT-BaF3; conditions: Mus musculus, BaF3 expressing wild-type C-KIT kinase
Excerpt: as §1

[5] = tested on: TEL-PDGFRα-BaF3; experiment: Cell proliferation (CCK-8, 72 h), TEL-PDGFRα-BaF3; conditions: Mus musculus, BaF3 expressing PDGFRα kinase
Excerpt: as §1

[6] = tested on: TEL-FLT3-BaF3; experiment: Cell proliferation (CCK-8, 72 h), TEL-FLT3-BaF3; conditions: Mus musculus, BaF3 expressing FLT3 kinase
Excerpt: as §1

[7] = tested on: BaF3; experiment: Cell proliferation (CCK-8, 72 h), parental BaF3; conditions: Mus musculus, parental BaF3 cells
Excerpt: as §1

Row | GI50 [1] [nM] | GI50 [2] [nM] | GI50 [3] [nM] | GI50 [4] [nM] | GI50 [5] [nM] | GI50 [6] [nM] | Compound | GI50 [7] [nM]
1 | < 0.1 | 2 | 48 | 20 | 1.4 | 300 | CNC(=O)c1ccccc1Sc1ccc2c(/C=C/c3ccccn3)n[nH]c2c1 [Axitinib, reference compound] | 430
2 | 16 | 3 | 3 | 24 | 1 | < 1 | Cc1nc(NC(=O)c2ccc(CN3CCN(C)CC3)cc2)sc1-c1ccc2c(/C=C/c3ccccn3)n[nH]c2c1 [Compound 1, (E)-N-(4-methyl-5-(3-(2-(pyridin-2-yl)vinyl)-1H-indazol-6-yl)thiazol-2-yl)-4-((4-methylpiperazin-1-yl)methyl)benzamide] | 58
3 | 40 | 13 | 84 | 135 | 2 | 4 | Cc1nc(NC(=O)c2ccc(Cl)c(C(F)(F)F)c2)sc1-c1ccc2c(/C=C/c3ccccn3)n[nH]c2c1 [Compound 2, (E)-4-chloro-N-(4-methyl-5-(3-(2-(pyridin-2-yl)vinyl)-1H-indazol-6-yl)thiazol-2-yl)-3-(trifluoromethyl)benzamide] | > 10000
4 | 13 | 12 | 28 | 35 | 2 | 0.1 | Cc1nc(NC(=O)Cc2cccc(C(F)(F)F)c2)sc1-c1ccc2c(/C=C/c3ccccn3)n[nH]c2c1 [Compound 3, (E)-N-(4-methyl-5-(3-(2-(pyridin-2-yl)vinyl)-1H-indazol-6-yl)thiazol-2-yl)-2-(3-(trifluoromethyl)phenyl)acetamide] | 2310
5 | 7 | 1 | 6 | 1550 | 2 | 4 | Cc1nc(NC(=O)c2ccncc2)sc1-c1ccc2c(/C=C/c3ccccn3)n[nH]c2c1 [Compound 4, (E)-N-(4-methyl-5-(3-(2-(pyridin-2-yl)vinyl)-1H-indazol-6-yl)thiazol-2-yl) isonicotinamide] | > 10000
6 | 19 | – | 19 | 216 | 1.2 | 0.4 | COc1ccc(CC(=O)Nc2nc(C)c(-c3ccc4c(/C=C/c5ccccn5)n[nH]c4c3)s2)cc1OC [Compound 8, (E)-2-(3,4-methoxyphenyl)-N-(4-methyl-5-(3-(2-(pyridin-2-yl)vinyl)-1H-indazol-6-yl)thiazol-2-yl)acetamide] | 4870
7 | 9.8 | – | 37 | 70 | 1.3 | 2 | Cc1nc(NC(=O)Cc2cccc(Cl)c2)sc1-c1ccc2c(/C=C/c3ccccn3)n[nH]c2c1 [Compound 10, (E)-2-(3-chlorophenyl)-N-(4-methyl-5-(3-(2-(pyridin-2-yl)vinyl)-1H-indazol-6-yl)thiazol-2-yl)acetamide] | 4100
8 | – | – | 16 | 961 | – | 2 | CSCCC(N)C(=O)Nc1nc(C)c(-c2ccc3c(/C=C/c4ccccn4)n[nH]c3c2)s1 (stereo not shown) [Compound 15, (E)-2-amino-N-(4-methyl-5-(3-(2-(pyridin-2-yl)vinyl)-1H-indazol-6-yl)thiazol-2-yl)-4-(methylthio)butanamide] | 594
9 | – | – | 323 | 1350 | – | 2150 | Cc1nc(NC(=O)C2CCN(C)CC2)sc1-c1ccc2c(/C=C/c3ccccn3)n[nH]c2c1 [Compound 16, (E)-1-methyl-N-(4-methyl-5-(3-(2-(pyridin-2-yl)vinyl)-1H-indazol-6-yl)thiazol-2-yl)piperidin-4 carboxamide] | 1510
10 | – | – | 88 | 460 | – | 4 | Cc1nc(NC(=O)C(C)N)sc1-c1ccc2c(/C=C/c3ccccn3)n[nH]c2c1 (stereo not shown) [Compound 17, (E)-2-amino-N-(4-methyl-5-(3-(2-(pyridin-2-yl)vinyl)-1H-indazol-6-yl)thiazol-2-yl)propionamide] | 544
11 | – | – | 37 | 507 | – | 6 | Cc1nc(NC(=O)C(N)CC(C)C)sc1-c1ccc2c(/C=C/c3ccccn3)n[nH]c2c1 (stereo not shown) [Compound 18, (E)-2-amino-4-methyl-N-(4-methyl-5-(3-(2-(pyridin-2-yl)vinyl)-1H-indazol-6-yl)thiazol-2-yl)pentanamide] | 706
12 | – | – | 41 | 519 | – | 4 | Cc1nc(NC(=O)C(C)C)sc1-c1ccc2c(/C=C/c3ccccn3)n[nH]c2c1 [Compound 19, (E)-N-(4-methyl-5-(3-(2-(pyridin-2-yl)vinyl)-1H-indazol-6-yl)thiazol-2-yl) isobutanamide] | 1580
13 | – | – | 37 | 361 | – | 3 | Cc1nc(NC(=O)C(N)Cc2ccccc2)sc1-c1ccc2c(/C=C/c3ccccn3)n[nH]c2c1 (stereo not shown) [Compound 20, (E)-2-amino-N-(4-methyl-5-(3-(2-(pyridin-2-yl)vinyl)-1H-indazol-6-yl)thiazol-2-yl)-3-phenylpropionamide] | 708
14 | – | – | 984 | 2740 | – | 68 | Cc1nc(NC(=O)CN2CCN(C)CC2)sc1-c1ccc2c(-c3cnn(C)c3)n[nH]c2c1 [Compound 21, N-(4-methyl-5-(3-(1-methyl-1H-pyrazol-4-yl)-1H-indazol-6-yl)thiazol-2-yl)-2-(4-methylpiperazin-1-yl)acetamide] | > 10000
15 | – | – | 34 | 1010 | – | 2 | Cc1nc(NC(=O)C(O)CC(C)C)sc1-c1ccc2c(/C=C/c3ccccn3)n[nH]c2c1 (stereo not shown) [Compound 22, (E)-2-hydroxyl-4-methyl-N-(4-methyl-5-(3-(2-(pyridin-2-yl)vinyl)-1H-indazol-6-yl)thiazol-2-yl)pentanamide] | 1530
16 | – | – | 13 | 133 | – | 0.5 | Cc1nc(NC(=O)CN2CCN(C)CC2)sc1-c1ccc2c(-c3cnc(N)nc3)n[nH]c2c1 [Compound 23, N-(5-(3-(2-aminopyrimidin-5-yl)-1H-indazol-6-yl)-4-methylthiazol-2-yl)-2-(4-methylpiperazin-1-yl)acetamide] | 1560
17 | – | – | 114 | 3210 | – | 12 | Cc1nc(NC(=O)CN2CCN(C)CC2)sc1-c1ccc2c(-c3cccnc3)n[nH]c2c1 [Compound 24, N-(4-methyl-5-(3-(pyridin-3-yl)-1H-indazol-6-yl)thiazol-2-yl)-2-(4-methylpiperazin-1-yl)acetamide] | 5130
18 | – | – | 241 | 1460 | – | 18 | Cc1nc(NC(=O)CN2CCN(C)CC2)sc1-c1ccc2c(-c3cncc(F)c3)n[nH]c2c1 [Compound 25, N-(5-(3-(5-fluoropyridin-3-yl)-1H-indazol-6-yl)-4-methylthiazole-2-yl)-2-(4-methylpiperazin-1-yl)acetamide] | 1690
19 | – | – | 83 | 1020 | – | 26 | Cc1nc(NC(=O)CN2CCN(C)CC2)sc1-c1ccc2c(-c3cccc(F)c3)n[nH]c2c1 [Compound 26, N-(5-(3-(3-fluorophenyl)-1H-indazol-6-yl)-4-methylthiazol-2-yl)-2-(4-methylpiperazin-1-yl)acetamide] | 1040
20 | – | – | 1 | 94 | – | < 1 | Cc1nc(NC(=O)CC2CCN(C)CC2)sc1-c1ccc2c(/C=C/c3ccccn3)n[nH]c2c1 [Compound 27, (E)-N-(4-methyl-5-(3-(2-(pyridin-2-yl)vinyl)-1H-indazol-6-yl)thiazol-2-yl)-2-(1-methylpiperidin-4-yl)acetamide] | 605
21 | – | – | 7 | 48 | – | 0.1 | Cc1nc(NC(=O)Cc2cccc(C(F)(F)F)c2)sc1-c1ccc2c(-c3cccnc3)n[nH]c2c1 [Compound 28, N-(4-methyl-5-(3-(pyridin-3-yl)-1H-indazol-6-yl)thiazol-2-yl)-2-(3-(trifluoromethyl)phenyl)acetamide] | 2490

— patent US12162876B2, “Indazole kinase inhibitor and use thereof” (Tarapeutics Science Inc., priority 2018, dated 2024)
